Several values for one entry are separate records, joined by “and”; a condition that tells them apart may be missing. Equal entries are not always repeated.
Legend:
Pgp3 WT = Pgp3 WT (Campylobacter jejuni, UniProt Q0P921); assay: Isothermal-titration calorimetry (ITC) with Pgp3 WT; type: binding, C. jejuni
Method: The gene encoding the amino-acid sequence of Glu21–Gln273 of Pgp3 from C. jejuni (strain ATCC 33560) was cloned into the expression vector pET-21a (Novagen) producing the recombinant wild-type Pgp3 protein with the C-terminal His6-tag ([…]). The protein expression and purification were conducted according to previously described methods with exception. The HiTrap chelating HP (GE Healthcare) column was washed with the lysis buffer containing 60 mM imidazole and the protein was eluted with a linear gradient from 100 to 500 mM imidazole. The protein was further purified by gel filtration on a HiLoad 16/60 Superdex 200 prep-grade column (GE Healthcare), which was previously equilibrated with 20 mM Tris-HCl pH 8.0 and 200 mM NaCl. The fractions containing the Pgp3 protein were pooled and concentrated to 15 mg mL^−1 for crystallization. The variants of Pgp3 (S169A, R195A, H216A, and H247A) were generated by site-directed mutagenesis using primer sets in Supplementary Table 1 and were purified as described for the WT Pgp3.
Using a micro-syringe, 2.5 μL of each inhibitor (2.25 mM) was added at intervals of 200 s to the Pgp3 solution in the cell with gentle stirring (125 rpm). The same ITC condition was applied to evaluate the KD values of BMK-S101 for each Pgp3 variant. All data were fitted to the single-binding-site model. Fitted curves were generated using GraphPad Prism 7. Data are mean ± SEM from triplicate experiments and the ITC thermograms are representative of triplicate experiments.

Pgp3 = Pgp3 (Campylobacter jejuni, UniProt Q0P921); assay: biochemical; parameters: species or system C. jejuni
Pgp3, sequence (Q0P921 entry or part of it): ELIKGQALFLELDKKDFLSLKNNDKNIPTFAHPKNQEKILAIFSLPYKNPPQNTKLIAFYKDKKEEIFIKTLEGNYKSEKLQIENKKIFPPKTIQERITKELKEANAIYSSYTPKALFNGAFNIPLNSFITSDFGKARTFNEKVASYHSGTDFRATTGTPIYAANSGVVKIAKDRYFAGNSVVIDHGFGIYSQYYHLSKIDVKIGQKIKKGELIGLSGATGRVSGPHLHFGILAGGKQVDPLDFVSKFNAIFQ
Method: Because DABCYL/FITC is a typical FRET quencher–fluorophore pair, an increase in fluorescent signals can be directly detected when it is processed by Pgp3 (Tang et al., 2013). The kinetic parameters (kcat = 0.0209 ± 0.0006 s^−1 and KM = 6.6 ± 0.7 µM) for the substrate were obtained by fitting the data to the Michaelis-Menten equation (Supplementary Fig. 8a).
The enzymatic assay for Pgp3 activity was determined using a fluorescein isothiocyanate (FITC) and 4′-([4′-(Dimethylamino)phenyl]-azo)-benzoic acid (DABCYL) pair for FRET. […] The excitation and emission spectra were set at 495 nm and 525 nm, respectively. Pgp3 (0.1 μM) in 20 mM HEPES pH 7.5, 200 mM NaCl, and 0.4 μM of zinc was used in this assay. The reaction was initiated by adding 3 μL of 0.015–2 mM substrate (final 1.56–200 μM) in the total volume of 30 μL of the reaction mixture. Initial velocities were calculated using slopes of fluorescence signal intensity in 3 min after the initiation of the reaction. In order to elucidate the inhibition mechanism of BMK-S301, initial velocities with various concentrations of substrates were measured in the presence of 40 μM BMK-S301. […] The same method was used for the determination of the IC50 values for inhibitors. Inhibitors in each concentration were pre-incubated with 0.1 μM of Pgp3 for 1 h on ice, and initial velocities were determined for 0.1, 10, 50, 100, 200, 500, and 1000 μM of each inhibitor in reaction with 10 μM of substrate. The IC50 values were calculated using GraphPad Prism 7.

C. jejuni ATCC 33560 WT [1] = assay: Cell morphology change monitored by TEM; type: cell-based, Campylobacter jejuni; settings: 37 °C, 24 h, KL-L9P used for improved permeability
Excerpt: Next, we investigated whether our inhibitors could transform C. jejuni from the helical- to curved-rod morphology on exposure to the inhibitors (Fig. 5). […] To investigate the effect of inhibitors on the morphology of C. jejuni cells, we exposed the cells to the inhibitors and checked whether the morphology could be altered.
Cell-morphology change of C. jejuni upon inhibitor treatment was monitored, as described previously with modifications. Briefly, overnight cultures of C. jejuni were harvested from MH agar plates and suspended in MH broth to approximately 1 × 10^6 colony-forming unit (CFU)/mL. A total of 500 μL of the diluted bacterial culture was added into each well of a 24-well plate with 5 μL of two-fold serial dilutions of inhibitor. For the control strain with no inhibitor, the same volume of dilution buffer (20 mM Tris-HCl pH 8.0 and 200 mM NaCl) was used. The plate was incubated under a micro-aerobic condition at 37 °C for 24 h in the static condition. After incubation, 10 μL of the bacterial cultures was placed on formvar/carbon-coated copper grids (200 mesh) and negatively stained with 2% uranyl acetate for 2 s.

Caco-2 epithelial cells = assay: Cytotoxicity assay (LDH release); type: cell-based; settings: 3 h; for Cytotoxicity test (LDH release, Triton X-100 lysis = 100%): single replicates, source data Fig. 5c
Method: To examine the cytotoxicity of BMK-[…], the lactate dehydrogenase (LDH) activity was measured using Cytotoxicity Detection Kit^PLUS (LDH; Roche, Switzerland) according to the manufacturer's instructions. Briefly, the monolayers of Caco-2 cells were prepared in a 96 well tissue culture plate and incubated in Dulbecco's modified-eagle medium (DMEM; ATCC) with 10% fetal bovine serum (FBS; Invitrogen), and 0.6% carboxymethylcellulose (CMC) at 37 °C under 5% CO2. […] The 2% Triton X-100 was used to release all LDH of Caco-2 cell as a positive control.

C. jejuni ATCC 33560 WT [2] = type: cell-based, Campylobacter jejuni
Method: Invasion assay was performed as described previously with modifications. Briefly, prior to bacterial infection, a monolayer of 1 × 10^5 Caco-2 cells was prepared in a 24-well tissue culture plate and incubated in DMEM with 10% FBS, and 0.6% CMC at 37 °C under 5% CO2. The cultures of wild-type C. jejuni strain with or without BMK-S301 (100 μM) and KL-L9P (1 μM) were prepared, as described above (TEM). The bacterial suspensions were diluted in DMEM with 10% FBS and 0.6% CMC, and then added onto the cell monolayer at a multiplicity of infection (MOI) of 100. After a 3 h incubation, the cells were incubated with 250 μg/mL of gentamicin in the fresh pre-warmed medium for 2 h to kill any extracellular bacteria. The wells were washed three times with 1 × PBS, and treated with 0.1% Triton X-100 in 1 × PBS for 15 min. After dilution with 1 × PBS, the suspensions were plated on MH agar to enumerate the CFU. […]

Pgp3 WT, sequence (Q0P921 entry or part of it): as above

Q: `CC(=O)N[C@@H](Cc1ccc(S(N)(=O)=O)cc1)C(=O)N[C@H](C)C(=O)NO` [BMK-S301] was tested. Which Kd (Pgp3 WT) did it give?
A: The Kd was 3.5 ± 0.2 µM.

Q: What about the IC50 (Pgp3) of the same compound?
A: Its IC50 is 22 ± 1.4 µM.

Q: And the “minimum concentration causing morphological changes (helical to curved-rod)” value (C. jejuni ATCC 33560 WT [1])?
A: Its value is 25 μM.

Q: And the “Cytotoxicity test (LDH release, Triton X-100 lysis = 100%)” value (Caco-2 epithelial cells; 10 μM)?
A: The value was 0% (5×) and 4.598%.

Q: And the “Cytotoxicity test (LDH release, Triton X-100 lysis = 100%)” value (Caco-2 epithelial cells; 100 μM)?
A: Its value is 2.466% and 0% (5×).

Q: What about the “toxicity to Caco-2 cells” value (Caco-2 epithelial cells; LDH release, 10 or 100 μM) of the same compound?
A: The value was “not toxic”.

Q: What about the “invasion ability of WT C. jejuni” value (C. jejuni ATCC 33560 WT [2]; 100 μM BMK-S301 and 1 μM KL-L9P, high-viscosity medium, 3 h after infection) of the same compound?
A: The value was “decreased compared to that of the untreated C. jejuni”.

Q: What about the “Invasion assay (intracellular bacteria, relative)” value (C. jejuni ATCC 33560 WT [2]; BMK-S0301 100 μM with MAP 1 μM, single replicates, source data Fig. 5d) of the same compound?
A: Its value is 90.1581 and 72.6517 and 79.6542 and 66.8677 and 113.675 and 78.0123 and 88.3559 and 93.1319 and 83.5799.

From publication PMC9050674, “Structure-based inhibitor design for reshaping bacterial morphology” (Communications Biology, 2022)
